This is an account of results in US9765114B2, “Method for cancer immunotherapy” (International Institute of Cancer Immunology, Inc., priority 2005, dated 2017).

The subject of one assay is HLA-A24 antigen. The note with it: compared with the wild type peptide; cited from earlier work.
The next assay relates to splenocytes. Description: Immunization of a mouse (2), mouse IFN gamma ELISPOT of splenocytes. In kind it is in vivo, HLA-A2402/K^b transgenic mouse. The note with it: splenocytes 7 days after immunization; peptides added at 10^-6 M, 18 hours; FIG. 8. How it is done: The peptide of Example 1 was adjusted to 40 mg/ml in DMSO. Then, the solution (32.5 μl) was mixed with water for injection (540 μl). Further, the resulting solution (550 μl) was mixed with Freund's incomplete adjuvant (700 μl) (Montanide ISA51 (registered trademark)) (SEPPIC, Inc, Paris, France) using a glass syringe to prepare water-in-oil emulsion.
The resulting preparation (200 μl) was injected into an HLA-A2402/K^b transgenic mouse intradermally in the base of the tail for immunization. 7 days after initiation of the experiment, spleen was removed and splenocytes were prepared in a conventional manner (WO 02/47474). Then, tests were conducted using mouse IFN gamma ELISPOT set (Enzyme—Linked Immunospot) (Fujisawa, catalog No. BD-551083). The test was conducted according to the instructions attached to the set.
According to the attached instructions, the plate was washed and the number of spots was detected using KS Elispot Research System (Carl Zeiss). Elispot method is known as an alternative to a test for cytotoxic activity (J. Immunological Methods, 1995, 181, 45-54).

Assay [1] concerns HLA-A2402 expressing VA13/A2402 cells pulsed with or without peptide. Description: Test using human PBMC: IFN-γ ELISA of peptide-stimulated CD8 positive T cells. The assay is classed as cell-based. Conditions: Day 21 T cells, FIG. 9. The procedure: Peripheral blood (50 ml) was taken using heparinized vacuum blood collection tube from HLA-A24 positive healthy subjects. The blood diluted two fold with PBS (−) was overlayered on Ficoll-Paque (Amersham Biosciences), the amount of which was half of the amount of the blood, followed by centrifugation for 20 minutes at 2000 rpm. A cell layer containing the peripheral blood mononuclear cells (PBMC) was collected and 3-4 times the amount of PBS (−) was added thereto, followed by centrifugation for 10 minutes at 1800 rpm. The cell pellet was washed twice with PBS (−) and PMBC was collected.
The PMBC was suspended in medium for culturing lymphocyte (RPMI1640: AIM V=1:1, NEAA, 10% FCS) and cultured in a culture flask for two hours and nonadherent cells were collected. Using CD8^+ T cell isolation kit II (Miltenyi Biotec), CD8 positive T cells were collected among the nonadherent cells. The adherent cells were cultured in the medium for culturing lymphocyte containing GM-CSF (1000 U/ml) and IL-4 (1000 U/ml) for 7 days. The floating cells were collected as an antigen-presenting cell fraction containing dendritic cells (DC). The collected cells were frozen for preservation until they are used for experiments.
The DC fraction prepared as above was pulsed with the peptide of Example 1 (50 μg/ml) by incubating the cells with the peptide in AIM-V medium containing mitomycin (50 μg/ml) for one hour. After washing with the medium three times, the peptide of Example 1 was further added (50 μg/ml) for one hour pulse to prepare antigen-presenting cells. On Day 0, antigen-presenting cells pulsed with the peptide were added to CD8 positive T cells to conduct the first stimulation, and the cell culture was started in medium for culturing lymphocyte containing IL-7 (10 ng/ml) using 24-well plate. On Day 7, T cells were collected and after washing them, peptide stimulation using antigen-presenting cells pulsed with the peptide was conducted in a similar way to the first stimulation. On the next day (Day 8), IL-2 was added so that the concentration was 50 U/ml. On Day 14, T cells were collected and the third stimulation was conducted in a similar way to the first or second stimulation. On the next day (Day 15), IL-2 was added so that the concentration was 50 U/ml. On Day 21, T cells were collected and frozen for preservation.
1×10^5 cells of T cells of Day 21 were added to 2×10^4 cells of HLA-A2402 expressing VA13/A2402 cells pulsed with or without each of the peptides (wild type peptide (WT1235-243), modified peptide (WT1235-243(2M→Y)) or the peptide of Example 1) and 18 hours later, the supernatant was collected to determine the amount of IFN-γ using ELISA.
The results of the peptide specific reactivity of T cells stimulated with the synthetic peptide of Example 1 were shown in FIG. 9. […]

For another assay, the system named is HLA-A24. Conditions: HLA-A24-restricted manner; cited from earlier work.

No end group written: not given here.

Take CYTWNQMNL [WT1235-243 (2M→Y)]: in the assay with HLA-A24 antigen, the “binding affinity for the HLA-A24 antigen” value is given as “higher binding affinity for the HLA-A24 antigen than the wild type peptide”.
Take “H-Cys(H-Cys-OH)-Tyr-Thr-Trp-Asn-Gln-Met-Asn-Leu-OH (H-C(Cys)YTWNQMNL-OH; also: Cys1 disulfide-linked to a free Cys-OH (cystine)) [Example 1, derivative of WT1235-243 (2M→Y) modified with cystine]”: in the assay with splenocytes, the “HLA-A24 specific cell-mediated immunity, IFN gamma ELISPOT spots” value is “could induce HLA-A24 specific cell-mediated immunity which cross reacted with the wild type peptide”. In assay [1] (VA13/A2402 cells not pulsed, 18 hours), the “reactivity (IFN-γ) of T cells stimulated with the peptide to cells pulsed without the peptide” value is on record as “did not react”. In assay [1] (VA13/A2402 cells pulsed with WT1235-243 (2M→Y), 18 hours), the “reactivity (IFN-γ) of T cells stimulated with the peptide to cells pulsed with the modified peptide (WT1235-243 (2M→Y))” value is “reacted”. The “reactivity (IFN-γ) of T cells stimulated with the peptide to cells pulsed with the wild type peptide (WT1235-243)” value in assay [1] (VA13/A2402 cells pulsed with WT1235-243, 18 hours) was “reacted”. Moreover, the “reactivity (IFN-γ) of T cells stimulated with the peptide to cells pulsed with the peptide of Example 1” value in assay [1] (VA13/A2402 cells pulsed with the peptide of Example 1, 18 hours) was “sufficiently reacted”.
In the case of “CMTWNQMNL [WT1235-243, peptide spanning positions 235 to 243 of the cancer antigen protein WT1]”, the “activity to induce CTLs” value in the assay on HLA-A24 is “having an activity to induce CTLs in HLA-A24-restricted manner”.
